According to PubChem BioAssay (NCI):
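Step 1: Grow cells in 96-well plates. Step 2: Expose to compound for 48 hours at 5 concentrations. Step 3: Interpolate endpoints linearly; if unreached, use highest concentration. GI50: concentration for 50% inhibition of growth. TGI: total growth inhibition.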

How the values were obtained:
Experiment in all cases: DTP human tumour cell line panel, 48 h
[1] = system: IGROV1 ovarian
[2] = system: MALME-3M melanoma
[3] = system: SNB-75 CNS
[4] = system: SW-620 colon
[5] = system: COLO 205 colon
[6] = system: SK-MEL-2 melanoma
[7] = system: KM12 colon
[8] = system: SNB-19 CNS
[9] = system: BT-549 breast
[10] = system: HOP-62 NSCLC

Row | Structure (SMILES) | TGI [1] [µM] | TGI [2] [µM] | TGI [3] [µM] | TGI [4] [µM] | TGI [5] [µM] | TGI [6] [µM] | TGI [7] [µM] | TGI [8] [µM] | TGI [9] [µM] | TGI [10] [µM] | GI50 [2] [µM] | GI50 [3] [µM]
1 | Fc1ccc(N=C/C=C/Nc2ccc(F)cc2)cc1 | 26.2 | 30.6 | 28.4 | 20.7 | 12.5 | 26.7 | 19.9 | 26.9 | 27.4 | 33 |  | 
2 | C=CC(OC(C)=O)c1ccc(OC(=O)C(C)C)c(OC)c1 (configuration not stated) | 28.7 | 4.43 | 13 | 7.69 | 7.65 | 15.8 | 7.2 | 24.6 | 16.4 | 28.4 |  | 
3 | c1ccc(CN[C@]23C4C5CC6C7C5C2C7[C@@](NCc2ccccc2)(C64)N3Cc2ccccc2)cc1 (some centres not stated) | > 100 | > 100 | > 100 | > 100 | > 100 | > 100 | > 100 | > 100 | > 100 | > 100 |  | 
4 | C/C(=C\c1ccccc1)C(=O)NCc1ccc(C(=O)NCCc2ccccc2)cc1 | > 100 | > 100 | 19.5 | > 100 | > 100 | > 100 | > 100 | > 100 | > 100 | 10.8 |  | 
5 | COC(=O)/C=C\C(C#N)(C#N)N=Cc1ccccc1 | 25.9 | 4.88 | 14.5 | 5.54 | 2.97 | 32.9 | 33.4 | > 58.4 | 10.8 | 34 |  | 
6 | C=CCc1cc(-c2cc(CC=C)c(O)c(CN(CC)CC)c2)cc(CN(CC)CC)c1O | > 100 | 32.8 | > 100 | 76.2 | > 82.2 | 60.3 | > 100 | > 100 | > 100 | 76.8 |  | 
7 | CCOC(=O)C[n+]1cccc(C2(c3cc4ccccc4[nH]3)OCCO2)c1 | > 100 | > 100 | > 100 | > 100 | > 100 | > 100 | > 100 | > 100 | > 100 | > 100 |  | 
8 | COC1CC(OC2C(C)OC(OC3C(C)OC(OC4C(O)CC(O[C@H]5CC[C@@]6(C)C(=CC[C@]7(O)[C@@H]6C[C@@H](OC(C)=O)[C@@]6(C)[C@]7(O)CC[C@@]6(O)C(C)=O)C5)OC4C)CC3OC)CC2OC)OC(C)C1O (some centres not stated) | > 12.5 | > 12.5 | > 12.5 | > 12.5 | > 12.5 | > 12.5 | > 12.5 | > 12.5 | > 12.5 | > 12.5 |  | 
9 | C=C1c2nc3ccccc3n2C=C(c2ccc(C)cc2)N1c1ccc(C)cc1 | > 100 | > 100 | > 100 | > 100 | > 89.3 | > 100 | > 82.2 | > 100 | > 100 | > 100 |  | 
10 | COC(OC)C1OCC(n2cc(F)c(=O)[nH]c2=O)C1O (configuration not stated) | > 100 | > 100 | > 100 | > 100 | > 100 | > 100 | > 100 | > 100 | > 100 | > 100 |  | 
11 | COc1ccc(/C=C/C(=O)c2cc(C(C)(C)C)c(O)c(C(C)(C)C)c2)cc1OC | > 100 | > 100 | 13.5 | > 100 | 31.9 | 16.5 | > 59.4 | 64.1 | > 77.6 | > 100 |  | 
12 | CCOC(=O)c1nc2ccccc2nc1Oc1ccc(C(=O)OC)cc1 | > 100 | > 100 | > 100 | > 100 | > 100 | > 100 | > 100 | > 100 | > 100 | > 100 |  | 
13 | COc1cc2oc(=O)cc(C)c2cc1O | > 100 | > 100 | > 100 | > 100 | > 100 | > 100 | > 100 | > 100 | > 100 | > 100 |  | 
14 | CSc1cc(-c2ccccn2)nc(-c2ccccn2)c1 | 8.99 | 9.18 | 13.6 | 16.6 | 7.29 | 14.9 | 14.4 | > 50.5 | 6.07 | 4.49 |  | 
15 | O=c1oc2ccc([N+](=O)[O-])cc2c(Nc2ccc3c(c2)Sc2ccccc2O3)c1[N+](=O)[O-] | 54.9 | > 100 | 79 | 80.6 | 34.8 | 40.4 | 49.8 | 36.2 | 64.3 | 44.7 |  | 
16 | CCOC(=O)c1c(Br)c(-c2ccc(OC)cc2)c(Br)n1C | > 100 | 44.4 | > 100 | 38.2 | > 100 | 39.1 | 38.1 | 97.7 | > 100 | 39.7 | 9.99 | 63.4
17 | CC1=NN(C(=O)CC(=O)Nc2ccccc2Cl)C(=O)C1N=Nc1ccc(S(=O)(=O)c2ccc(N=NC3C(=O)N(C(=O)CC(=O)Nc4ccccc4Cl)N=C3C)cc2)cc1 (configuration not stated) | > 100 | > 100 | > 100 | > 100 | > 100 | > 100 | > 100 | > 100 | > 100 | > 100 |  | 
18 | CCCC(O)c1cn(C(NC(=O)c2ccccc2)P(=O)(OCC)OCC)nn1 (configuration not stated) | > 100 | > 100 | > 100 | > 100 | > 100 | > 100 | > 100 | > 100 | > 100 | > 100 |  | 
19 | CSC1C(=O)Nc2ccc3ccccc3c21 (configuration not stated) | 33.3 | > 100 | 70.5 | 49 | 43.3 | > 100 | 35.5 | > 100 | 50.7 | 71.8 |  | 
20 | O=C(c1ccccc1)n1cc(-c2ccccc2)c2c(=O)[nH]cnc21 | > 100 | > 100 | > 100 | > 100 | > 100 | > 100 | > 100 | > 100 | > 100 | > 100 |  | 
21 | CCCCCc1cc2cc3c(c(O)c2c(=O)[nH]1)C1(CCC3)C(O)=c2c(=O)c3c(=O)cc(OC)c(=O)c=3c(=O)c2=C1O (configuration not stated) | 3.48 | 2.95 | 3.67 | 3.04 | 0.564 | 3.68 | 4.22 | 3.86 | 3.33 | 7.67 |  | 
22 | O=[N+]([O-])c1ccc(C(Nc2ccccc2)P(c2ccccc2)c2ccccc2)cc1 (configuration not stated) | > 100 | > 100 | > 100 | > 100 | > 100 | > 100 | > 100 | > 100 | > 100 | > 100 |  | 
23 | CCO[C@@]1(COCc2ccccc2)OC(=O)C[C@@H]1N1C(=O)OC[C@@H]1c1ccccc1 | > 100 | > 100 | > 100 | > 100 | > 100 | > 100 | > 100 | > 100 | > 100 | 73 |  | 
24 | CC(=O)OC(Cc1ccc2ccccc2n1)(C(F)(F)F)C(F)(F)F | 6.02 | 5.21 | 13.5 | 12 | 1.98 | 4.36 | 12.7 | 14.7 | 4.17 | 27.9 |  | 
25 | COc1cc(O)c2c(=O)c3c(C)cccc3n(C)c2c1 | > 10 | > 10 | > 10 | > 10 | > 10 | > 10 | > 10 | > 10 | > 10 | > 10 |  | 
